According to patent publication US20190142718A1, “NOVEL USE” (DSM IP ASSETS B.V., priority 2017, published 2019):

Columns and labels:
Test in all cases: Antimicrobial efficacy, challenge test in analogy to NF EN ISO11930
P. Acnes = assay type: cell-based, Propionibacterium acnes
Procedure: (§1) The antimicrobial efficacy is assessed in analogy to the regulatory challenge test method (NF EN IS011930). Thus, a solution of 0.2 wt.-% of phytantriol in a physiological serum with 0.85 wt.-% NaCl supplemented with 10 wt.-% ethanol was prepared. A control was also prepared under sterile conditions based on a serum with 0.85 wt.-% NaCl and 10 wt.-% ethanol.
(§2) The control as well as the phytantriol solution were deposed in 96-deep well plates (1.6 ml/well). The wells were contaminated with the respective bacterial or the fungal strains as outlined in table 1 at 2.5*10^5 to 5.6*10^5 cfu/ml for the bacteria and 1*10^4 to 2.5*10^4 cfu/ml for the fungi to obtain the initial contamination as outlined in table 1. After the contamination, each well was thoroughly mixed to ensure a homogeneous distribution of the microorganism. Then each plate was incubated at 22° C. for 24h. The counting of the (remaining) population was carried out 24h after contamination.

S. epidermidis = assay type: cell-based, Staphylococcus epidermidis
Procedure: as §1, §2

M. furfur = assay type: cell-based, Malassezia furfur
Procedure: as §1, §2

A. brasiliensis = assay type: cell-based, Aspergillus brasiliensis
Procedure: as §1, §2

S. aureus = assay type: cell-based, Staphylococcus aureus
Procedure: as §1, §2

C. albicans = assay type: cell-based, Candida albicans
Procedure: as §1, §2

CC(C)CCCC(C)CCCC(C)CCCC(C)(O)C(O)CO (stereo not drawn) [Phytantriol, 3,7,11,15-tetramethyl-hexadecane-1,2,3-triol]
colony counts 24 h (P. Acnes; 0.2 wt.-% phytantriol in 0.85 wt.-% NaCl serum with 10 wt.-% ethanol, 22° C., 24 h after contamination, 0 h count 310000, control 24 h 30000): 28000 cfu/ml | antimicrobial effect (P. Acnes; against Propionibacterium acnes, 0.2 wt.-%, 24 h): significant antimicrobial effect | colony counts 24 h (S. epidermidis; 0.2 wt.-% phytantriol in 0.85 wt.-% NaCl serum with 10 wt.-% ethanol, 22° C., 24 h after contamination, 0 h count 560000, control 24 h 28000): 0 cfu/ml | antimicrobial effect (S. epidermidis; against Staphylococcus epidermidis, 0.2 wt.-%, 24 h): significant antimicrobial effect | colony counts 24 h (M. furfur; 0.2 wt.-% phytantriol in 0.85 wt.-% NaCl serum with 10 wt.-% ethanol, 22° C., 24 h after contamination, 0 h count 4000, control 24 h 775): 0 cfu/ml | antimicrobial effect (M. furfur; against Malassezia furfur, 0.2 wt.-%, 24 h): significant antimicrobial effect | colony counts 24 h (A. brasiliensis; 0.2 wt.-% phytantriol in 0.85 wt.-% NaCl serum with 10 wt.-% ethanol, 22° C., 24 h after contamination, 0 h count 10000, control 24 h 1000): 10 cfu/ml | antimicrobial effect (A. brasiliensis; against Aspergillus brasiliensis, 0.2 wt.-%, 24 h): significant antimicrobial effect | colony counts 24 h (S. aureus; 0.2 wt.-% phytantriol in 0.85 wt.-% NaCl serum with 10 wt.-% ethanol, 22° C., 24 h after contamination, 0 h count 250000, control 24 h 280000): 0 cfu/ml | antimicrobial effect (S. aureus; against Staphylococcus aureus, 0.2 wt.-%, 24 h): significant antimicrobial effect | colony counts 24 h (C. albicans; 0.2 wt.-% phytantriol in 0.85 wt.-% NaCl serum with 10 wt.-% ethanol, 22° C., 24 h after contamination, 0 h count 25000, control 24 h 5000): 1000 cfu/ml | antimicrobial effect (C. albicans; against Candida albicans, 0.2 wt.-%, 24 h): significant antimicrobial effect
